Assay results from the NIST ThermoML archive (doi:10.1016/j.fluid.2015.03.048).

Tests used:
[1] = xn = mol fraction of the nth substance listed; conditions: 303.15 K, 100 kPa, Liquid; for viscosity: Capillary tube (Ostwald / Ubbelohde) method; for excess molar volume: Direct dilatometry; for speed of sound: Frequency=3 MHz, Sing-around technique in a fixed-path interferometer; for mass density: Pycnometric method
[2] = 303.15 K, Liquid; for viscosity: 100 kPa, Capillary tube (Ostwald / Ubbelohde) method; for mass density: 101.33 kPa, Pycnometric method

Clc1ccccc1Cl [1,2-dichlorobenzene] + CC(=O)N(C)C
[1]
Conditions | excess molar volume [m3/mol] | mass density [kg/m3] | speed of sound [m/s] | viscosity [mPa·s]
x2 = 0.0664 | – | 1275.7 | 1263 | –
x2 = 0.0805 | -3.6e-08 | – | – | 1.294
x2 = 0.1017 | – | 1263.13 | 1276 | –
x2 = 0.1224 | -5e-08 | – | – | 1.29
x2 = 0.1344 | – | 1251.49 | 1284 | –
x2 = 0.1605 | -6e-08 | – | – | 1.283
x2 = 0.1841 | – | 1233.77 | 1298 | –
x2 = 0.2175 | -7.5e-08 | – | – | 1.277
x2 = 0.2229 | – | 1219.92 | 1307 | –
x2 = 0.2611 | -8.4e-08 | – | – | 1.276
x2 = 0.2821 | – | 1198.76 | 1319 | –
x2 = 0.3261 | -9.1e-08 | – | – | 1.261
x2 = 0.4095 | – | 1152.99 | 1344 | –
x2 = 0.4319 | -9.2e-08 | – | – | 1.253
x2 = 0.4585 | – | 1135.37 | 1353 | –
x2 = 0.4607 | -8.8e-08 | – | – | 1.24
x2 = 0.5105 | -8.1e-08 | – | – | 1.232
x2 = 0.5742 | – | 1093.68 | 1377 | –
x2 = 0.6242 | -5.5e-08 | – | – | 1.225
x2 = 0.6565 | – | 1064.03 | 1393 | –
x2 = 0.7019 | -3.4e-08 | – | – | 1.218
x2 = 0.7168 | – | 1042.36 | 1402 | –
x2 = 0.7571 | -1.8e-08 | – | – | 1.211
x2 = 0.7764 | – | 1020.96 | 1413 | –
x2 = 0.8105 | -5e-09 | – | – | 1.201
x2 = 0.822 | – | 1004.63 | 1419 | –
x2 = 0.8505 | 2e-09 | – | – | 1.112
x2 = 0.9177 | – | 970.54 | 1435 | –
x2 = 0.9321 | 7e-09 | – | – | 0.908

Clc1ccc(Cl)c(Cl)c1 [1,2,4-trichlorobenzene] + CC(=O)N(C)C
[1]
Conditions | excess molar volume [m3/mol] | mass density [kg/m3] | speed of sound [m/s] | viscosity [mPa·s]
x2 = 0.0697 | – | 1407.11 | 1289 | –
x2 = 0.0921 | 2.1e-08 | – | – | 1.608
x2 = 0.1026 | – | 1390.55 | 1299 | –
x2 = 0.1341 | 3.1e-08 | – | – | 1.578
x2 = 0.1407 | – | 1371.4 | 1308 | –
x2 = 0.1758 | – | 1353.78 | 1316 | –
x2 = 0.1815 | 4.3e-08 | – | – | 1.523
x2 = 0.2103 | – | 1336.46 | 1325 | –
x2 = 0.2241 | 5.2e-08 | – | – | 1.474
x2 = 0.2601 | – | 1311.41 | 1336 | –
x2 = 0.265 | 6.1e-08 | – | – | 1.445
x2 = 0.3225 | 7.4e-08 | – | – | 1.403
x2 = 0.3592 | – | 1261.63 | 1354 | –
x2 = 0.4015 | – | 1240.42 | 1365 | –
x2 = 0.4257 | – | 1228.27 | 1368 | –
x2 = 0.4315 | 9.5e-08 | – | – | 1.383
x2 = 0.476 | 9.9e-08 | – | – | 1.353
x2 = 0.4786 | – | 1201.84 | 1378 | –
x2 = 0.501 | 1e-07 | – | – | 1.284
x2 = 0.5539 | – | 1164.24 | 1391 | –
x2 = 0.5542 | 9.7e-08 | – | – | 1.292
x2 = 0.6271 | 8.8e-08 | – | – | 1.205
x2 = 0.6383 | – | 1122.13 | 1405 | –
x2 = 0.705 | 7.3e-08 | – | – | 1.197
x2 = 0.7344 | – | 1074.16 | 1419 | –
x2 = 0.7519 | – | 1065.39 | 1420 | –
x2 = 0.7892 | 5.5e-08 | – | – | 1.152
x2 = 0.8041 | 5.2e-08 | – | – | 1.096
x2 = 0.9052 | – | 988.77 | 1440 | –
x2 = 0.9282 | 2.2e-08 | – | – | 1.088

Cc1ccccc1[N+](=O)[O-] [2-nitrotoluene]
[2]
Conditions | mass density [kg/m3] | viscosity [mPa·s]
– | 1153.24 | 1.908

CC(=O)N(C)C [N,N-dimethylethanamide]
[2]
Conditions | mass density [kg/m3] | viscosity [mPa·s]
– | 941.35 | 0.865

Cc1ccccc1[N+](=O)[O-] [2-nitrotoluene] + CC(=O)N(C)C
[1]
Conditions | excess molar volume [m3/mol] | mass density [kg/m3] | speed of sound [m/s] | viscosity [mPa·s]
x2 = 0.0824 | – | 1135.81 | 2046 | –
x2 = 0.1025 | 1.4e-08 | – | – | 1.905
x2 = 0.124 | – | 1126.98 | 2006 | –
x2 = 0.1501 | – | 1121.45 | 1978 | –
x2 = 0.1527 | 2e-08 | – | – | 1.877
x2 = 0.1784 | – | 1115.46 | 1956 | –
x2 = 0.1835 | 2.5e-08 | – | – | 1.857
x2 = 0.2165 | 2.8e-08 | – | – | 1.835
x2 = 0.2318 | – | 1104.13 | 1897 | –
x2 = 0.2579 | – | 1098.58 | 1874 | –
x2 = 0.2775 | 3.5e-08 | – | – | 1.788
x2 = 0.3067 | 4e-08 | – | – | 1.763
x2 = 0.3103 | – | 1087.46 | 1817 | –
x2 = 0.3637 | – | 1076.12 | 1773 | –
x2 = 0.3641 | 4.7e-08 | – | – | 1.715
x2 = 0.4133 | – | 1065.58 | 1734 | –
x2 = 0.4211 | 5.3e-08 | – | – | 1.663
x2 = 0.466 | – | 1054.4 | 1696 | –
x2 = 0.4727 | 5.8e-08 | – | – | 1.613
x2 = 0.5262 | 6e-08 | – | – | 1.559
x2 = 0.5465 | – | 1037.36 | 1650 | –
x2 = 0.6053 | 5.8e-08 | – | – | 1.474
x2 = 0.6694 | – | 1011.4 | 1592 | –
x2 = 0.7204 | 4.5e-08 | – | – | 1.336
x2 = 0.7773 | – | 988.58 | 1547 | –
x2 = 0.8162 | 3.2e-08 | – | – | 1.203
x2 = 0.8701 | – | 968.9 | 1506 | –
x2 = 0.895 | 2e-08 | – | – | 1.074
x2 = 0.9584 | – | 950.18 | 1463 | –
x2 = 0.967 | 7e-09 | – | – | 0.937
